Experimental findings from patent publication US12332245B2, “Cancer biomarkers and methods of use thereof” (THE REGENTS OF THE UNIVERSITY OF CALIFORNIA, priority 2006, dated 2025) are described below.

Common to all, as to assay type: cell-based, human
The subject of test [1] is vHMEC-ras0.5 cells. The test is described as follows: TGFβ-induced EMT in vHMEC-ras0.5 cells (immunofluorescence, flow cytometry, immunoblot, MSP). How it is done:
Having observed that extracellular signaling induced by 10% serum can cooperate with intracellular ras activation to induce EMT in vHMEC, it was then asked whether appropriate growth factor stimulation could induce EMT in the immortalized vHMEC-ras0.5 cells which had maintained their epithelial morphology. […] Thiery et al. (2003) Curr. Opinion Cell. Biol. 15:740; and Zavadil et al. (2005) Oncogene 24:5764. vHMEC-ras0.5 cells were treated with TGFβ and the expression of molecular markers associated with EMT was assessed by immunofluorescence, flow cytometry, and immunoblot analysis. […] Coincident with the loss of epithelial marker expression was an upregulation in the expression of the mesenchymal markers, twist (FIG. 18B), N-cadherin, and fibronectin (FIG. 18C).
Unlike the EMT observed in cells exposed to 10% serum, TGFβ-induced EMT is reversible. […] As expected, the promoter of the epithelial marker 14-3-3σ remained unmethylated in all the epithelial cells, and methylated in the human mammary fibroblasts, which were used as a positive control (FIG. 18D).
FIGS. 18A-D. TGFβ induces EMT in vHMEC-ras0.5 cells without modulating methylation of E-cadherin. A. Inununofluorescence analysis. Cells were treated with 2 ng/ml TGFβ for 72 h, and immunostained for pancytokeratin, E-cadherin, β 1-integrin, and vimentin. B. Flow cytometric analysis of twist expression before (green curve) and after (purple curve) treatment with 2 ng/ml TGFβ for 72 h. C. Immunoblot analysis of the mesenchymal markers fibronectin (Fn) and N-cadherin (N-cad) was performed on cell lysates prepared from vHMEC-ras0.5 that were either untreated (−) or treated (+) with 2 ng/ml TGFβ for 72 h. Cell lystates prepared from human mammary fibroblasts were used as a positive control (C) and actin is shown as a loading control. D. MSP analysis of E-cadherin and 14-3 3σ was conducted on the PCR products of bisulfite-treated DNA isolated from vHMEC-ras0.5 untreated (−TGF) or treated (+TGF) with 2 ng/ml TGFβ for 96 h as described in FIGS. 3B and C. Bisulfite-modified DNA from MCF7 and MDA-MB-231 cells was used as unmethylated and methylated control templates, respectively for E-cadherin, while bisulfite-modified DNA from MDA-MB-231 and human mammary fibroblasts (HMF) served as unmethylated and methylated controls for 14-3-3s. Also included is a water control (no template).
On the technique in general: A flow cytometer gives signals particle by particle.

Test [2] has as its system vHMEC-ras0.5 cells. The test is described as follows: scratch migration assay of vHMEC-ras0.5 monolayers with time-lapse microscopy. Particulars: TGFβ treated versus untreated cells.
The subject of the next test is COX-2 in HMEC. The test can be described thus: exogenous induction of COX-2 by TGF-β in HMEC with modulated p16/Rb pathway (immunoblot). An excerpt: DNA constructs. DNA constructs used in this study are as follows: pMSCV, pMSCV-shp16 (G. Hannon and S. Lowe, Cold Spring Harbor Laboratories); pLXSN, pLXSN-HPV 16 E7 (D. Galloway, Fred Hutchinson Cancer Center); pMKO, pMKO-shRb (W. Hahn, Harvard Medical School and Dana-Farber Cancer Institute), pBabe; pBabe-cyclinD1 (O. Tetsu, UCSF Cancer Center), pBabe, pBabe-hTert (K. Collins, UC-Berkeley); LXSP and LXSP-COX-2 (D. Dixon, Vanderbilt University Medical Center). All constructs were packaged in Phoenix A cells for viral propagation. To generate stable cell lines we exposed HMEC, vHMEC or breast cell lines to viral supernatant containing 8 μg/ml Polybrene (Sigma). Cells containing stable DNA integration were selected in medium containing 4 μg/ml puromycin (pMSCV, pMKO, and LXSP constructs), 50 μg/ml G418 (LXSN constructs) or 20 μg/nil hygromycin (pBabe). Where indicated, cell lines were imaged using a standard phase contrast microscopy.
Western Blot. Total protein (15-20 μg) lysates were electrophoretically separated by SDS-PAGE and transferred onto polyvinylidene difluoride (PVDF) membranes according to standard procedures. Antisera against COX-2 (160107; Cayman Chemical, MI), Rb (554136, BD Pharmingen), p16 (16P07 Neomarkers), E2F1 (sc-251 Santa Cruz), cyclinD1 (2926, Cell Signaling), p53 (se-126, Santa Cruz), p21 (SC-6246 Santa Cruz) were used according to manufacturers protocols.
To test this hypothesis, specific members of the p16/Rb pathway were genetically modulated, and the levels of COX-2 protein expression compared to HMEC that maintain p16 expression were determined. First, basal and induced COX-2 protein levels in HMEC lacking p16 activity were compared.
To extend this analysis, we determined how other alterations within this pathway, mutations common in cancer, affect COX-2 expression. We modulated the p16/Rb pathway by three additional methods, cyclin D1 overexpression, pRb downregulation, and expression of a viral oncoprotein, HPV 16-E7 and determined the effect on basal and exogenously-induced COX-2 protein levels. To determine if cyclin D1 induces and/or sensitizes cells to COX-2 induction, we measured COX-2 protein levels in HMEC engineered to stably express cyclin D1 under the regulation of an independent, constitutively active promoter. […] The absence of E2F1 upregulation following cyclin D1 overexpression supports our finding that Rb remains active. […] To determine if inactivation of Rb is sufficient for the upregulation of COX-2, we infected HMEC with a retrovirus containing a short hairpin RNA against Rb (shRb) and determined COX-2 protein levels in cells from two independent experiments. […] Similar to results obtained with Rb genetic silencing, expression of the human papilloma virus 16-E7 (HPV 16-E7) elevated both basal and induced levels of COX-2 protein (FIG. 12D). Stable expression of HPV16-E7 was performed in cells generated from three independent reduction mammoplasties. Mammary epithelial cells expressing HPV 16-E7 show downregulation of Rb and thus inactivation of Rb and consequently upregulation of E2F1 (FIG. 12D). HPV16-E7 is well characterized for its role as a transforming oncoprotein through targeted degradation of all three members of Rb family (Rb, p107 and p130) and driving E2F-dependent transactivation.
FIG. 12A-E. Deregulation of distinct members of the p16/cyclin D1/Rb pathway differentially regulate COX-2. […]
Background: A western blot detects proteins with antibodies after separation by electrophoresis.

[3] abbreviates: 2 ng/ml TGFβ for 72 h, immunofluorescence.

Consider TGF-β, for which, in the test on vHMEC-ras0.5 cells [1] (2 ng/ml TGFβ for 72 h, flow cytometry and immunoblot), the “expression of the mesenchymal markers twist, N-cadherin and fibronectin” value is on record as “upregulation”. The E-cadherin expression result in the test on vHMEC-ras0.5 cells [1] (setting [3]) is “loss”. Further, the cytokeratin expression result in the test with vHMEC-ras0.5 cells [1] (setting [3]) is listed as “diminution”. Further, the β1-integrin expression result in the test on vHMEC-ras0.5 cells [1] (setting [3]) is “loss”. Further, the “methylation of the E-cadherin promoter” value in the test with vHMEC-ras0.5 cells [1] (2 ng/ml TGFβ for 96 h, MSP) is given as “not observed”. Further, the “cell morphology (EMT)” value with vHMEC-ras0.5 cells [1] (2 ng/ml TGFβ, began within 48 h, clearly manifested by 72 h) is “morphological change”. Further, in the test on vHMEC-ras0.5 cells [2], the “migration into the denuded area” value was “increase in directed migration”. Further, the “COX-2 protein after exogenous induction” value with COX-2 in HMEC (HMEC expressing HPV 16-E7, 24 h exposure to 1 ng/ml TGF-β) was “elevated”; in the test on COX-2 in HMEC (HMEC overexpressing cyclin D1, 24 h exposure to 1 ng/ml TGF-β), “failed to render cells sensitive”; in the test with COX-2 in HMEC (HMEC with shRb, 24 h exposure to 1 ng/ml TGF-β), “increased”; in the test with COX-2 in HMEC (p16 silenced HMEC (shp16), 24 h exposure to 1 ng/ml TGF-β) it was “COX-2 upregulation”; in the test on COX-2 in HMEC (vector control HMEC (pMSCV), 24 h exposure to 1 ng/ml TGF-β), “unresponsive”.
